Patent publication EP0473993B1, “Novel peptide derivatives and their pharmaceutical use” (Japan Tobacco Inc., priority 1990, dated 1992)

Tests used:
ICR male mice [1] = assay: Anti-reserpine action (antagonistic action against hypothermia); format: in vivo; settings: Mus musculus, 2 h; SC; mice given reserpine 5 mg/kg s.c. 3 or 3.5 hours before; estimated from regression line; read-out: Concentration of test compound necessary for raising body temperature by 1°C on the average for 120 minutes
Experimental: Anti-reserpine action (Antagonistic action against hypothermia)
ICR male mice weighing 35 - 40 g were subcutaneously administered with reserpine at the dose of 5 mg/kg. About 2 hours later, each of the mice was held by a mouse-holder, and a body temperature sensor was intrarectally inserted. Thereafter, the body temperature was automatically measured every 10 minutes. The test compound dissolved in saline was subcutaneously administered 3 or 3.5 hours after administration of reserpine. After the administration of the test compound, the body temperature was measured every 10 minutes over the period of 120 minutes. The area below the body temperature line during the period was calculated, from which the regression line was estimated based upon least square method, and estimated was the amount of the test compound necessary for raising the body temperature by 1°C on the average for 120 minutes from that just before the administration of the test compound (Table 1).

ICR male mice [2] = assay: Anti-chlorpromazine action (locomotor stimulant action); format: in vivo; settings: Mus musculus, 2 h; SC; mice given chlorpromazine HCl 5 mg/kg s.c. one hour before; estimated from regression line; read-out: Concentration of test compound necessary for inducing 3000 count of automatism quantity in 2 hours
Experimental: Anti-chlorpromazine action (Locomotor stimulant action)
ICR male mice weighing 35 - 40 g (four animals per group) were subcutaneously administered with chlorpromazine HCl at the dose of 5 mg/kg and immediately set in the automatic locomotor-measuring apparatus (AUTOMEX). One hour later, the test compound dissolved in saline was subcutaneously administered, and the locomotor activity was measured every 15 minutes for 120 minutes. The total locomotor activity during the period of 120 minutes was calculated and the regression line was estimated based on the method of least squares, from which the amount of the test compound necessary for inducing 3000 locomotor-count was estimated (Table 2).

Row | Structure (SMILES) | ED (1 C rise of body temperature) (ICR male mice [1]) | ED (3000 locomotor counts) (ICR male mice [2])
1 | CC(C)C[C@H](NC(=O)[C@H]1NC(=O)C[C@H]1C)C(=O)N1CCC[C@H]1C(N)=O [Compound 1A, N-(cis-3-Methylpyroglutamyl)-L-leucyl-L-prolinamide] | 0.18 mg/kg | 2.63 mg/kg
2 | CSCC[C@H](NC(=O)[C@H]1NC(=O)C[C@H]1C)C(=O)N1CCC[C@H]1C(N)=O [Compound 2A, N-(cis-3-Methylpyroglutamyl)-L-methionyl-L-prolinamide] | 0.48 mg/kg | 1.64 mg/kg
3 | CCC[C@H](NC(=O)[C@H]1NC(=O)C[C@H]1C)C(=O)N1CCC[C@H]1C(N)=O [Compound 3A, N-(cis-3-Methylpyroglutamyl)-L-norvalyl-L-prolinamide] | 0.91 mg/kg | 
4 | CCCC[C@H](NC(=O)[C@H]1NC(=O)C[C@H]1C)C(=O)N1CCC[C@H]1C(N)=O [Compound 5A, N-(cis-3-Methylpyroglutamyl)-L-norleucyl-L-prolinamide] | 0.33 mg/kg | 16.3 mg/kg
5 | NC(=O)[C@@H]1CCCN1C(=O)[C@H](Cc1c[nH]cn1)NC(=O)[C@@H]1CCC(=O)N1 [TRH, L-pyroglutamyl-L-histidyl-L-prolinamide, reference compound] |  | 6.82 mg/kg
